In patent US20250027079A1 (priority 2020, published 2025):
Structures can show the parent of a compound that is named as a salt. Where two headings read alike, the source gives them in different places. {AF594} = Alexa Fluor 594 dye

How the values were obtained:
CLas [1] = format: in vivo, Candidatus Liberibacter asiaticus; settings: for effect on quantity of the bacterium (Liberibacter titer) in infected Citrus trees: FANA 5 μM, streptomycin sulfate 5 mg/mL, sampling 2, 7, 14, 30 days (FIG. 5); for Liberibacter repression (percent change in CLas titer): CLas-infected Citrus trees, root infusion 5 mL of 5 μM
CLso [2] = format: in vivo, Candidatus Liberibacter solanacearum; settings: CLso infected potato, soil applied drench, one gallon pots (FIG. 8); infected untreated control ave. 39, uninfected healthy 66 cm
CLso [3] = format: in vivo, Candidatus Liberibacter solanacearum; settings: for foliar disease symptoms (foliar symptom ranking) / products with the greatest foliar symptom reduction: 8 week trial; for foliar disease symptoms (foliar symptom ranking): soil application (FIG. 11B); for products with the greatest foliar symptom reduction: comparison among all products (FIG. 11B); for tuber disease symptoms (proportion of symptomatic tubers) compared to CLso infected Control tubers: 8 week trial (FIG. 11C)
wDi gyrA gene = format: cell-based, Wolbachia-Diaphorina
CLas LigA gene = format: in vivo, Candidatus Liberibacter asiaticus
CLas [4] = format: in vivo, Candidatus Liberibacter asiaticus
CLas [5] = format: in vivo, Candidatus Liberibacter asiaticus; remark: listed apart in the source
D. citri adults = system: D. citri adults; design: species or system Diaphorina citri; settings: in vivo

[H]/N=C(/N)N[C@H]1[C@H](O)[C@@H](O)[C@H](O[C@@H]2O[C@@H](C)[C@](O)(C=O)[C@H]2O[C@@H]2O[C@@H](CO)[C@H](O)[C@@H](O)[C@@H]2NC)[C@@H](N/C(N)=N\[H])[C@@H]1O [streptomycin sulfate, reference compound]
effect on quantity of the bacterium (Liberibacter titer) in infected Citrus trees (CLas [1]; root infusion): did not significantly reduced

AATAAACGCAATGACCAATCC (FANA modification, further chemistry not given here) [CLso-1 GyrA-Ext-1, FANA ASO, CLso Gyrase-A]
plant growth, average height (CLso [2]): 51 centimeters | foliar disease symptoms (foliar symptom ranking) (CLso [3]): significantly reduced

ATAACCTTGACGATCTGATTC (FANA modification, further chemistry not given here) [CLso-2 Gyr-Ext-2, FANA ASO, CLso Gyrase-A]
plant growth, average height (CLso [2]): 51 centimeters | products with the greatest foliar symptom reduction (CLso [3]): most symptom reduction | foliar disease symptoms (foliar symptom ranking) (CLso [3]): significantly reduced

AUAUCCTTGTCGTATCCCAGU (FANA modification, further chemistry not given here) [scramble control FANA, reference compound]
expression of the wDi gyrA gene versus untreated cells (wDi gyrA gene): No significant difference | amount of CLas LygA mRNA versus untreated psyllids (CLas LigA gene; in vivo): no significant difference | CLas density (copy number) in psyllids (CLas [4]; in vivo): No difference | number of viable wDi cells (wDi copy number, PMA-qPCR) (wDi cells): high wDi copy number | toxicity of the FANA chemistry to the bacterial cells or the Drosophila S2 cells (wDi cells): not toxic

CAAATCAGGTATAGCACGGCC (FANA modification, further chemistry not given here) [CLso-2Gyr, FANA ASO, CLso Gyrase A]
foliar disease symptoms (foliar symptom ranking) (CLso [3]): significantly reduced

CATTTTGTATATGCGAGGACA (FANA modification, further chemistry not given here) [CLsoDNAB-4, FANA ASO, CLso DnaB-Helicase C]
tuber disease symptoms (proportion of symptomatic tubers) compared to CLso infected Control tubers (CLso [3]): significantly reduced | foliar disease symptoms (foliar symptom ranking) (CLso [3]): significantly reduced

CGATTAAAAGCTTGTCCAGCC (FANA modification, further chemistry not given here) [CLsoDNAB-3, FANA ASO, CLso DnaB-Helicase C]
foliar disease symptoms (foliar symptom ranking) (CLso [3]): significantly reduced

CGGCACAGCAATTAGAACGTC (FANA modification, further chemistry not given here) [LigA-FANA, FANA antisense oligo designed to target the CLas NAD-dependent DNA Ligase A gene]
decrease of expression of the bacterial target gene (CLas LigA) compared to untreated psyllids (CLas LigA gene; D. citri adults fed on excised Citrus leaves that took up 5 μM FANA solution, seven days, qRT-PCR (FIG. 2B)): 75% | CLas LigA transcript level compared to insects treated with the scramble control (CLas LigA gene; D. citri adults, 5 μM via leaves, seven days, p=0.009): significantly lower | CLas density (copy number) in psyllids (CLas [4]; D. citri adults, artificial diet 5 μM, seven days post-treatment, qPCR of 16S rRNA gene (FIG. 4), versus untreated psyllids): significantly lower | Liberibacter repression (percent change in CLas titer) (CLas [1]; seven days post treatment (FIG. 5)): 51.6% | Liberibacter repression (percent change in CLas titer) (CLas [1]; two days post treatment (FIG. 5)): 81% | persistence of the suppression effect (CLas [1]; root infusion, sampling period): 30 days | effect on quantity of the bacterium (Liberibacter titer) in infected Citrus trees (CLas [1]; root infusion): significantly reduced | success of treated psyllids in transmitting the pathogen into citrus plants compared to untreated insects (CLas [5]; psyllids treated seven days, 15 days inoculation access on Citrus macrophylla seedlings, p=0.018): less successful in transmitting the pathogen | CLas copy number detected in the citrus plants exposed to the treated psyllids (CLas [5]; seedlings sampled three months later (FIG. 7)): significantly lower

GAAGAACGGGCGAACTTTTTG (chemistry not given here) [L. solanacearum CLso2 -GyrA host Potato]
plant growth, average height (CLso [2]): 51 centimeters | foliar disease symptoms (foliar symptom ranking) (CLso [3]): significantly reduced

GATTGAAGGGCAGGGGAATTC (chemistry not given here)
foliar disease symptoms (foliar symptom ranking) (CLso [3]): significantly reduced

GCATCATTATTCACTAGGATAG (FANA modification, further chemistry not given here) [CLsoDNAB-1, FANA ASO, CLso DnaB-Helicase C]
products with the greatest foliar symptom reduction (CLso [3]): most symptom reduction | foliar disease symptoms (foliar symptom ranking) (CLso [3]): significantly reduced

GGGAATATTCGTCGCCATACC (FANA modification, further chemistry not given here) [CLso-4Gyr, FANA ASO, CLso Gyrase A]
foliar disease symptoms (foliar symptom ranking) (CLso [3]): significantly reduced

TAGTTCCGATTTGTATGCATC (FANA modification, further chemistry not given here) [CLsoDnaB-6, FANA ASO, CLso DnaB-Helicase C]
foliar disease symptoms (foliar symptom ranking) (CLso [3]): significantly reduced

TATGGAAACAGCCTCAGATGC (FANA modification, further chemistry not given here) [CLsoDNAB-2, FANA ASO, CLso DnaB-Helicase C]
tuber disease symptoms (proportion of symptomatic tubers) compared to CLso infected Control tubers (CLso [3]): significantly reduced | foliar disease symptoms (foliar symptom ranking) (CLso [3]): significantly reduced

TATTACGATAGATCCTCGACC (FANA modification, further chemistry not given here) [CLso-2Gyr-Ext-3, FANA ASO, CLso Gyrase A]
foliar disease symptoms (foliar symptom ranking) (CLso [3]): significantly reduced

TGGTATGGCAACCAATATTCC (FANA modification, further chemistry not given here) [gyrA-FANA]
reduction in the amount of the target mRNA (wDi gyrA) compared to untreated cells (wDi gyrA gene; S2-wDi cells, 5 μM, seven days post-treatment, qRT-PCR (FIG. 2A)): 30% | wDi gyrA transcript level compared to cells treated with the scramble control (wDi gyrA gene; S2-wDi cells, 5 μM, seven days, p=0.009): significantly lower | number of viable wDi cells (wDi copy number, PMA-qPCR) (wDi cells; isolated wDi cells, 5 μM, four days, versus untreated or scramble control (FIG. 3)): greatly reduced

TGTATATGCGAGGACATCGTC (FANA modification, further chemistry not given here) [CLso-DnaB-7, FANA ASO, CLso DnaB-Helicase C]
foliar disease symptoms (foliar symptom ranking) (CLso [3]): significantly reduced

TTCTATCAGGGTAAATCGCTC (FANA modification, further chemistry not given here) [CLso-2 Gyr-Ext-4, FANA ASO, CLso Gyrase-A]
plant growth, average height (CLso [2]): 51 centimeters | tuber disease symptoms (proportion of symptomatic tubers) compared to CLso infected Control tubers (CLso [3]): significantly reduced | foliar disease symptoms (foliar symptom ranking) (CLso [3]): significantly reduced

TTGTCCAGCCATATCAATAGC (FANA modification, further chemistry not given here) [CLsoDnaB-5, FANA ASO, CLso DnaB-Helicase C]
foliar disease symptoms (foliar symptom ranking) (CLso [3]): significantly reduced

fluorophore-tagged FANA oligo control: FANA ASO with scramble sequence [SEQ ID NO: 1 and SEQ ID NO: 2] tagged with Alexa Fluor 594 at its 5′ end (chain 1 ACTGGGATACGACAAGGATAT; chain 2 TCTTGGAACAGCATAGGGACA; 5' {AF594}, sugars by position and backbone not given here; FANA ASO)
localization of the oligo in psyllid alimentary canal (D. citri adults): detected mainly in the psyllid esophagus, filter chamber and anterior midgut
